Source: patent US20110129935A1, “PROTEIN STABILITY ASSAY USING A FLUORESCENT REPORTER OF PROTEIN FOLDING” (James Cook University, priority 2008, published 2011)

Assays:
CAT-GFP = CAT-GFP (Escherichia coli, UniProt P62577); assay type: binding; conditions: 10 mM chloramphenicol, 9.2 mM ampicillin or 6.4% ethanol
Description: (§1) Protein samples (6 or 10 μl) were incubated along a temperature gradient in a thermocycler for 5 minutes or 30 minutes for the determination of Tagg, or at a constant temperature and increasing times to determine kagg. After heat treatment and centrifugation as described above, 3 or 5 μl of supernatant were transferred to a black 96-well plate (Nunclon, Nunc, Rochester, N.Y., USA), diluted with 47 or 50 μl respectively of Buffer A or Buffer B and the fluorescent Ffold was determined with a fluorescence plate reader (Victor V Wallace, Perkin-Elmer, Melbourne VIC, Australia). The excitation and emission filters were set at 355 nm and 535 nm respectively, with 40 nm band-width. Data were normalized against the fluorescence of an untreated sample.
(§2) To determine the effect of ligands, CAT-GFP reaction premix contained 9.2 μl of CAT-GFP (71 μM in Buffer A), 51.6 μl of Buffer A and 4.2 μl of either 50 mg/ml chloramphenicol in ethanol or 50 mg/ml ampicillin in water. GK-GFP reaction premix contained 9.3 μl of GK-GFP (70 μM), 49.20 of Buffer A and 6.5 μl of either Buffer A+10 mM glycerol or Buffer A+10 mM glucose. Reaction volume was 10 μl and 5 μl of the soluble fraction was analysed by plate reader after centrifugation.
The S method was then further developed to evaluate the effect of ligand binding and additives in a rapid throughput format for the three test proteins using replicates of single timepoints (FIG. 6a-6c). […] Indeed, the temperature used to test for chloramphenicol binding had to be kept quite low and for a short time as GFP would have been destabilized in more stringent conditions. […] This non-specific stabilization could also be attributed to the low stringency of the conditions.

Tus-GFP = Tus-GFP (Escherichia coli, UniProt P16525, Q80R); test: Isothermal aggregation of Tus-GFP with additives (kagg, S method); parameters: species or system E. coli; conditions: 46° C., 25% glycerol in 0.5× Buffer B
Description: as §1, with “sample. […]” for “sample.”
The kagg (s^−1) measured the loss of fluorescence of the soluble fraction of proteins over time. The kagg values were determined by the exponential fit of normalized Ffold as follows:
To evaluate the kinetic parameters of the system, a 96-well plate format was designed that enabled measurement of the residual Ffold of Tus-GFP over time. Isothermal aggregation reactions were monitored at 46° C. to quantify the effect of stabilizing or destabilizing salts and additives on the kagg of Tus-GFP (FIG. 3). […]

GK-GFP = GK-GFP (Escherichia coli, UniProt P0A6F3); test: Rapid throughput S method, Ffold of GK-GFP with ligands or other proteins; assay type: binding, E. coli; conditions: 1 mM glycerol in presence of BSA 15 μM
Description: as §1
as §2, with “centrifugation. […]” for “centrifugation.”

Sequence of GK-GFP (P0A6F3 other isoform, or with tags, fused parts or gaps): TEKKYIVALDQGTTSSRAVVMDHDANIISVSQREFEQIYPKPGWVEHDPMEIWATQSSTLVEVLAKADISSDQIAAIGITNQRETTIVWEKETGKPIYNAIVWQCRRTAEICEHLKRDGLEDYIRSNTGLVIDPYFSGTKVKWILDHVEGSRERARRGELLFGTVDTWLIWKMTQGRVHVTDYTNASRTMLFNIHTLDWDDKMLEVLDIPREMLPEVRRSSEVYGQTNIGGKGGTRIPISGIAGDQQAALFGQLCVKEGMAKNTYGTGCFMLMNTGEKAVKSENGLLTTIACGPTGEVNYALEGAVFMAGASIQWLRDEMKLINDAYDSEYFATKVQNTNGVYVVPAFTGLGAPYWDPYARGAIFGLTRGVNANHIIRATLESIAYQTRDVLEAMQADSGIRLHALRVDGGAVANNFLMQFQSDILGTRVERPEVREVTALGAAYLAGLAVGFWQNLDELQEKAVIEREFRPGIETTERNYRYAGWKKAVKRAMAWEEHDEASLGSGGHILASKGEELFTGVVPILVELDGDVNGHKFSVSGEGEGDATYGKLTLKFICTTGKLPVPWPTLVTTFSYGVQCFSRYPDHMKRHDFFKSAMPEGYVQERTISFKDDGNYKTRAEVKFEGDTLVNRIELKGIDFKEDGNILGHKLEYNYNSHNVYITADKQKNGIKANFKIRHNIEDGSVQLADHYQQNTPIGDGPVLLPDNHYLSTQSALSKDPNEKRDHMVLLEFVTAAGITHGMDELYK

| Structure (SMILES) | stabilization of CAT-GFP (Ffold) (CAT-GFP) | stabilization effect on Tus-GFP (kagg) (Tus-GFP) | stabilization of GK-GFP (Ffold) (GK-GFP) |
| --- | --- | --- | --- |
| CC1(C)S[C@@H]2[C@H](NC(=O)[C@H](N)c3ccccc3)C(=O)N2[C@H]1C(=O)O [ampicillin] | moderate stabilization |  |  |
| O=C(N[C@H](CO)[C@H](O)c1ccc([N+](=O)[O-])cc1)C(Cl)Cl [chloramphenicol] | stabilizing |  |  |
| CCO [ethanol] | almost the same stabilizing effect |  |  |
| OCC(O)CO [glycerol] |  | largest stabilization effect | almost completely stabilized |
